Tests used:
Surinam grass = test: Test B pre-/postemergence herbicide test; assay type: in vivo, Urochloa decumbens; details: for Plant response rating, Surinam Grass: preemergence; for Surinam Grass plant response rating: postemergence, visual rating, scale 0 (no effect) to 100 (complete control)
How it was run: (§1)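 Seeds were planted and treated preemergence with compounds formulated in a non-phytotoxic solvent mixture containing surfactant, while plants at the 1- to 4-leaf stage (2 to 18 cm) received postemergence sprays. Flooded paddy plants were grown to the 2-leaf stage. After 13 to 15 days in a greenhouse, injury was visually rated 0–100 against untreated controls.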

velvetleaf = test: Test B pre-/postemergence herbicide test; assay type: in vivo, Abutilon theophrasti; details: for Plant response rating, Velvetleaf: preemergence; for Velvetleaf plant response rating: postemergence, visual rating, scale 0 (no effect) to 100 (complete control)
How it was run: as §1

corn = test: Test B pre-/postemergence herbicide test; assay type: in vivo, Zea mays; details: for Plant response rating, Corn: preemergence; for Corn plant response rating: postemergence, visual rating, scale 0 (no effect) to 100 (complete control)
How it was run: as §1

pigweed = test: Test B pre-/postemergence herbicide test; assay type: in vivo, Amaranthus retroflexus; details: for Plant response rating, Pigweed: preemergence; for Pigweed plant response rating: postemergence, visual rating, scale 0 (no effect) to 100 (complete control)
How it was run: as §1

barnyardgrass [1] = test: Test B flooded paddy test; assay type: in vivo, Echinochloa crus-galli; details: 1000 g ai/ha, visual rating, scale 0 to 100 (0 no effect, 100 complete control), 13 to 15 days
How it was run: (§2)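 Plants grow to 1- to 4-leaf stage (2–18 cm) for postemergence spraying, or to 2-leaf stage for the paddy test. Formulated compound is applied. Greenhouse holding lasts 13–15 days. Response is scored visually relative to controls, 0 no effect to 100 complete control; a dash means no result.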

ducksalad = test: Test B flooded paddy test; assay type: in vivo, Heteranthera limosa; details: 1000 g ai/ha, visual rating, scale 0 to 100 (0 no effect, 100 complete control), 13 to 15 days
How it was run: as §2

blackgrass = test: Test B postemergence herbicide test; assay type: in vivo, Alopecurus myosuroides; details: postemergence, visual rating, scale 0 (no effect) to 100 (complete control)
How it was run: as §2

large crabgrass = test: Test B pre-/postemergence herbicide test; assay type: in vivo, Digitaria sanguinalis; details: for Plant response rating, Crabgrass, Large: preemergence; for Crabgrass, Large plant response rating: postemergence, visual rating, scale 0 (no effect) to 100 (complete control)
How it was run: as §1

giant foxtail = test: Test B pre-/postemergence herbicide test; assay type: in vivo, Setaria faberi; details: for Plant response rating, Foxtail, Giant: preemergence; for Foxtail, Giant plant response rating: postemergence, visual rating, scale 0 (no effect) to 100 (complete control)
How it was run: as §1

lambsquarters = test: Test B pre-/postemergence herbicide test; assay type: in vivo, Chenopodium album; details: for Plant response rating, Lambsquarters: preemergence; for Lambsquarters plant response rating: postemergence, visual rating, scale 0 (no effect) to 100 (complete control)
How it was run: as §1

rice [2] = test: Test B flooded paddy test; assay type: in vivo, Oryza sativa; details: 1000 g ai/ha, visual rating, scale 0 to 100 (0 no effect, 100 complete control), 13 to 15 days
How it was run: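 Visual ratings, 0 (no effect) to 100 (complete control), made versus controls after 13–15 d greenhouse. Paddy plants treated at 2-leaf stage; postemergence plants at 1- to 4-leaf stage, 2–18 cm tall.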

[3] = tested on: small flower umbrella sedge; test: Test B flooded paddy test; assay type: in vivo, Cyperus difformis; details: 1000 g ai/ha, visual rating, scale 0 to 100 (0 no effect, 100 complete control), 13 to 15 days
How it was run: as §2

morningglory = test: Test B pre-/postemergence herbicide test; assay type: in vivo, Ipomoea coccinea; details: for Plant response rating, Morningglory: preemergence; for Morningglory plant response rating: postemergence, visual rating, scale 0 (no effect) to 100 (complete control)
How it was run: (§3)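 Species tested were Echinochloa crus-galli, Ipomoea coccinea, Xanthium strumarium and Oryza sativa, treated both before emergence and at the 1- to 4-leaf stage; rice and barnyardgrass were also tested under flooding at 2 leaves. Greenhouse incubation lasted 13–15 days before visual 0–100 scoring.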

barnyardgrass [4] = test: Test B pre-/postemergence herbicide test; assay type: in vivo, Echinochloa crus-galli; details: for Plant response rating, Barnyardgrass: preemergence; for Barnyardgrass plant response rating: postemergence, visual rating, scale 0 (no effect) to 100 (complete control)
How it was run: as §3

wild oat = test: Test B postemergence herbicide test; assay type: in vivo, Avena fatua; details: postemergence, visual rating, scale 0 (no effect) to 100 (complete control)
How it was run: (§4)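 Formulated test chemicals went onto postemergence plants measuring 2 to 18 cm, at one to four leaves. For the paddy assay, species had reached two leaves. Scoring took place 13–15 days later by eye, relative to untreated plants, using 0 for no effect up to 100 for full control.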

rice [5] = test: Test B pre-/postemergence herbicide test; assay type: in vivo, Oryza sativa; details: preemergence
How it was run: as §1

cocklebur = test: Test B pre-/postemergence herbicide test; assay type: in vivo, Xanthium strumarium; details: for Plant response rating, Cocklebur: preemergence; for Cocklebur plant response rating: postemergence, visual rating, scale 0 (no effect) to 100 (complete control)
How it was run: as §3

wheat = test: Test B postemergence herbicide test; assay type: in vivo, Triticum aestivum; set-up: key to Wheat plant response rating: 0 = no effect, 100 = complete control; details: postemergence, 500 g ai/ha; visual rating, scale 0 (no effect) to 100 (complete control)
How it was run: as §4

[6] = 500 g ai/ha, visual rating 0-100, 0 no effect, 100 complete control
[7] = 125 g ai/ha, 0 to 100 scale, 0 is no effect, 100 is complete control

C=CCN(C)C(=O)c1cccc(NC(=O)c2cc(C(C)(C)C)nn2CC)n1 [Compound 163]
30: Oat, Wild plant response rating (wild oat; 500 g ai/ha)
20: Crabgrass, Large plant response rating (large crabgrass; 125 g ai/ha) | Plant response rating, Foxtail, Giant (giant foxtail; [7])
50: Plant response rating, Surinam Grass (Surinam grass; [7]) | Blackgrass plant response rating (blackgrass; 500 g ai/ha) | Lambsquarters plant response rating (lambsquarters; 125 g ai/ha)
60: Pigweed plant response rating (pigweed; 125 g ai/ha) | Plant response rating, Crabgrass, Large (large crabgrass; [7]) | Rice plant response rating (rice [2]) | Plant response rating, Morningglory (morningglory; [7]) | Plant response rating, Barnyardgrass (barnyardgrass [4]; [7]) | Cocklebur plant response rating (cocklebur; 500 g ai/ha)
10: Blackgrass plant response rating (blackgrass; 125 g ai/ha) | Oat, Wild plant response rating (wild oat; 125 g ai/ha) | Cocklebur plant response rating (cocklebur; 125 g ai/ha) | Wheat plant response rating (wheat)
80: Velvetleaf plant response rating (velvetleaf; 500 g ai/ha) | Pigweed plant response rating (pigweed; 500 g ai/ha) | Ducksalad plant response rating (ducksalad) | Plant response rating, Foxtail, Giant (giant foxtail; [6]) | Lambsquarters plant response rating (lambsquarters; 500 g ai/ha) | Plant response rating, Lambsquarters (lambsquarters; [7]) | Plant response rating, Rice (rice [5]; [6]) | Plant response rating, Rice (rice [5]; [7])
40: Surinam Grass plant response rating (Surinam grass; 500 g ai/ha) | Velvetleaf plant response rating (velvetleaf; 125 g ai/ha) | Plant response rating, Corn (corn; [6]) | Crabgrass, Large plant response rating (large crabgrass; 500 g ai/ha) | Foxtail, Giant plant response rating (giant foxtail; 500 g ai/ha)
90: Plant response rating, Velvetleaf (velvetleaf; [6]) | Plant response rating, Pigweed (pigweed; [7]) | Plant response rating, Crabgrass, Large (large crabgrass; [6]) | Plant response rating, Barnyardgrass (barnyardgrass [4]; [6])
0: Surinam Grass plant response rating (Surinam grass; 125 g ai/ha) | Corn plant response rating (corn; 125 g ai/ha) | Corn plant response rating (corn; 500 g ai/ha) | Plant response rating, Corn (corn; [7]) | Foxtail, Giant plant response rating (giant foxtail; 125 g ai/ha) | Morningglory plant response rating (morningglory; 125 g ai/ha) | Morningglory plant response rating (morningglory; 500 g ai/ha) | Barnyardgrass plant response rating (barnyardgrass [4]; 125 g ai/ha) | Barnyardgrass plant response rating (barnyardgrass [4]; 500 g ai/ha)
70: Plant response rating, Surinam Grass (Surinam grass; [6]) | Plant response rating, Velvetleaf (velvetleaf; [7]) | Barnyardgrass plant response rating (barnyardgrass [1]) | Sedge, Umbrella plant response rating [3] | Plant response rating, Morningglory (morningglory; [6]) | Plant response rating, Cocklebur (cocklebur; [6]) | Plant response rating, Cocklebur (cocklebur; [7])
100: Plant response rating, Pigweed (pigweed; [6]) | Plant response rating, Lambsquarters (lambsquarters; [6])

Source: patent US20060069132A1, “Azolecarboxamide herbicides” (priority 2004, published 2006)
